Measurements published in patent US20210070748A1, “INHIBITORS OF BRUTONS TYROSINE KINASE” (Pharmacyclics LLC, priority 2015, published 2021).

What was measured:
Type in all cases: biochemical
[1] = target: EGFR (Homo sapiens, UniProt P00533); experiment: Inhibition of a panel of kinases, in vitro HotSpot kinase assay: EGFR; conditions: D-compounds panel data; 1 μM ATP
Experimental: (§1) The degree of inhibition of a panel of kinases is determined using the in vitro HotSpot kinase assay (purified enzymes, ^33P-ATP, an appropriate substrate and 1 μM ATP).

[2] = target: T1, ITK (Homo sapiens, UniProt Q08881); experiment: Inhibition of a panel of kinases, in vitro HotSpot kinase assay: ITK; conditions: D-compounds panel data; 1 μM ATP
T1 sequence (Q08881 1-620): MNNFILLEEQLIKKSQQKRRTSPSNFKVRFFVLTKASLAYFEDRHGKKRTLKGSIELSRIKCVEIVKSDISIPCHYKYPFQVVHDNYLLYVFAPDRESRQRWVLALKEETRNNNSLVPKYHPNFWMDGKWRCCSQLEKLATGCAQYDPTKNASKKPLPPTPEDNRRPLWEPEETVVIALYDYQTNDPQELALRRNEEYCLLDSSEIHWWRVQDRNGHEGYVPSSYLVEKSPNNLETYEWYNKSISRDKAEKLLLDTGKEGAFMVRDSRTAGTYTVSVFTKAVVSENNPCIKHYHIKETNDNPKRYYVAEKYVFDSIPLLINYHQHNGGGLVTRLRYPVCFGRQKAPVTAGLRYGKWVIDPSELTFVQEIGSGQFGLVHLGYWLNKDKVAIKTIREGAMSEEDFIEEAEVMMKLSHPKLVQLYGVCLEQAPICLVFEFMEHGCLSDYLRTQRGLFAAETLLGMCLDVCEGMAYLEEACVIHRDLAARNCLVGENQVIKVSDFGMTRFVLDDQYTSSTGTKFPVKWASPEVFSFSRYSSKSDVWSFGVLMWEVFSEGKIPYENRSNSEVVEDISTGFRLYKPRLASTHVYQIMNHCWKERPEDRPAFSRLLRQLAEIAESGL
Experimental: as §1

[3] = target: T2, JAK3 (Homo sapiens, UniProt P52333); experiment: Inhibition of a panel of kinases, in vitro HotSpot kinase assay: JAK3; conditions: D-compounds panel data; 1 μM ATP; read-out: IC50 JAK3
T2 sequence (P52333 1-1124): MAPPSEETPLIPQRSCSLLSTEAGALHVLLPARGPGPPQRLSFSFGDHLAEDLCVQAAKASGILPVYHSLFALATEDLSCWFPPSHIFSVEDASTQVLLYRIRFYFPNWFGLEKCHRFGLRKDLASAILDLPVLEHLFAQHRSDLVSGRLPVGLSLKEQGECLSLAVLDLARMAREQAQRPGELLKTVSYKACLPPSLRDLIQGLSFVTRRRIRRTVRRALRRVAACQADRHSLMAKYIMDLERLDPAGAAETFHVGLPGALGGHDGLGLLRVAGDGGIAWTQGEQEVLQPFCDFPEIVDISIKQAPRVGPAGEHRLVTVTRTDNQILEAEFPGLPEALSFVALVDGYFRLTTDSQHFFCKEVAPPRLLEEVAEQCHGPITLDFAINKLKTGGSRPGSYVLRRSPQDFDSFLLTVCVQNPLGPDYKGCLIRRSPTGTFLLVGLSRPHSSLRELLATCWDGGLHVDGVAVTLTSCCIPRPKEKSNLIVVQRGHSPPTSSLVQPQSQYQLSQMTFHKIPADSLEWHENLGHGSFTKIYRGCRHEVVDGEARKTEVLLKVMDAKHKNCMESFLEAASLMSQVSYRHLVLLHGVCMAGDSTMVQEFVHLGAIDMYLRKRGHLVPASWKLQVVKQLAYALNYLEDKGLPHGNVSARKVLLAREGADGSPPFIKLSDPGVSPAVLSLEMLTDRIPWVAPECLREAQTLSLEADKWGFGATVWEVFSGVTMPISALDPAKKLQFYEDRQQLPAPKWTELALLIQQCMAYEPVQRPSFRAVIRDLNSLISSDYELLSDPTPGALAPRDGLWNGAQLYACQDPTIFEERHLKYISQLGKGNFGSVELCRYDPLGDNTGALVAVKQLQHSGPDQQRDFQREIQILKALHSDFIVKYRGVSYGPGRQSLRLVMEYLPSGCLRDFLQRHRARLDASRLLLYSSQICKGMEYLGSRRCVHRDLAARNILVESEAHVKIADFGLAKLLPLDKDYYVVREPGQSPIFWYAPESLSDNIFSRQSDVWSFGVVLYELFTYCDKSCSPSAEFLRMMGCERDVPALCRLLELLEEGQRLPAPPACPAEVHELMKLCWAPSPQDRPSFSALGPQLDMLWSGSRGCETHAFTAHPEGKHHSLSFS

EGFR, sequence (P00533 25-1210): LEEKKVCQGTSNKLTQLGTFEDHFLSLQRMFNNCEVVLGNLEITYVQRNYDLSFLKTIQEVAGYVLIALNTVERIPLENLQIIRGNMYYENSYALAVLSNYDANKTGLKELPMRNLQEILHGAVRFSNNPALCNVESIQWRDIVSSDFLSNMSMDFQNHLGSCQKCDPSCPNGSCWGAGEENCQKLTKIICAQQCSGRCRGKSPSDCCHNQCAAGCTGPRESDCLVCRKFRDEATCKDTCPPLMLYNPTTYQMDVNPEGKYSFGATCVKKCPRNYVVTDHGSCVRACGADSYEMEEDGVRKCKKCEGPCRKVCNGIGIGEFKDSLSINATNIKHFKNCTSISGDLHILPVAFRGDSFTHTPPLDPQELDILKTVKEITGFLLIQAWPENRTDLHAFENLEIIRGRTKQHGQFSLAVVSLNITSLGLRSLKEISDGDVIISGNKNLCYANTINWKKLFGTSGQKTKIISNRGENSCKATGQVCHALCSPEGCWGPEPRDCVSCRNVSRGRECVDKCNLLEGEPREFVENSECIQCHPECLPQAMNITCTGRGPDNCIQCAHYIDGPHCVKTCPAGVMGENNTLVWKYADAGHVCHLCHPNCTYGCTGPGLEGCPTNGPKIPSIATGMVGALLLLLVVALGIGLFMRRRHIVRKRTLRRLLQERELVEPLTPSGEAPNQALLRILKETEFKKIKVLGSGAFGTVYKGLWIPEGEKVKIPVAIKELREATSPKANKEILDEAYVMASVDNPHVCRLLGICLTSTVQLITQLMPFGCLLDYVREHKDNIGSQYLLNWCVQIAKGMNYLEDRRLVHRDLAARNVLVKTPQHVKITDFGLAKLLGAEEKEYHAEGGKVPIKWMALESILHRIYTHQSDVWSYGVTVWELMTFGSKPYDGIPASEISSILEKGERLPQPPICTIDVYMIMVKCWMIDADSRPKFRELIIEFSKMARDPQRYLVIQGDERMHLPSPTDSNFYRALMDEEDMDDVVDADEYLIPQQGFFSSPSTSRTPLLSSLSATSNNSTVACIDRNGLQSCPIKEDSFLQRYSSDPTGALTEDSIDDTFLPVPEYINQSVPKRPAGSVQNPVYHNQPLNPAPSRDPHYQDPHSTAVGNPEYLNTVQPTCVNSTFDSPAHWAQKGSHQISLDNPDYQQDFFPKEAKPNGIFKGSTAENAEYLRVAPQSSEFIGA

Row | Structure (SMILES) | IC50 [1] | IC50 [2] | IC50 [3]
1 | C[C@@H]1[C@H](NC(=O)c2ccc(C(C)(C)C)cc2)CCCN1c1cnc(C(N)=O)c(Nc2cnn(C)c2)n1 [Example D-22, 5-[(2R,3R)-3-(4-tert-butylbenzamido)-2-methylpiperidin-1-yl]-3-[(1-methyl-1H-pyrazol-4-yl)amino]pyrazine-2-carboxamide] | 1000 to 10000 nM | 1000 to 10000 nM | > 10000 nM
2 | C[C@@H]1[C@H](NC(=O)c2ccc(C3COC3)cc2)CCCN1c1cnc(C(N)=O)c(Nc2cnn(C)c2)n1 [Example D-23, 3-[(1-methyl-1H-pyrazol-4-yl)amino]-5-[(2R,3R)-2-methyl-3-[4-(oxetan-3-yl)benzamido]piperidin-1-yl]pyrazine-2-carboxamide] | 1000 to 10000 nM | 100 to 1000 nM | 100 to 1000 nM
3 | C[C@@H]1[C@H](NC(=O)c2ccc(N(C)C)cc2)CCCN1c1cnc(C(N)=O)c(Nc2cnn(C)c2)n1 [Example D-24, 5-[(2R,3R)-3-[4-(dimethylamino)benzamido]-2-methylpiperidin-1-yl]-3-[(1-methyl-1H-pyrazol-4-yl)amino]pyrazine-2-carboxamide] | 1000 to 10000 nM | 100 to 1000 nM | 1000 to 10000 nM
4 | C[C@@H]1[C@H](NC(=O)c2ccc(C3CC3)cc2C(F)(F)F)CCCN1c1cnc(C(N)=O)c(Nc2cnn(C)c2)n1 [Example D-25, 5-[(2R,3R)-3-[4-cyclopropyl-2-(trifluoromethyl)benzamido]-2-methylpiperidin-1-yl]-3-[(1-methyl-1H-pyrazol-4-yl)amino]pyrazine-2-carboxamide] | 1000 to 10000 nM | 1000 to 10000 nM | 1000 to 10000 nM
5 | C[C@@H]1[C@H](NC(=O)c2ccc3ncsc3c2)CCCN1c1cnc(C(N)=O)c(Nc2cnn(C)c2)n1 [Example D-243, N-[(2R,3R)-1-{5-carbamoyl-6-[(1-methyl-1H-pyrazol-4-yl)amino]pyrazin-2-yl}-2-methylpiperidin-3-yl]-1,3-benzothiazole-6-carboxamide] | 1000 to 10000 nM | 100 to 1000 nM | 100 to 1000 nM
6 | C[C@@H]1[C@H](NC(=O)c2cc(C(C)(C)C)n[nH]2)CCCN1c1cnc(C(N)=O)c(Nc2cnn(C)c2)n1 [Example D-244, 5-[(2R,3R)-3-(3-tert-butyl-1H-pyrazole-5-amido)-2-methylpiperidin-1-yl]-3-[(1-methyl-1H-pyrazol-4-yl)amino]pyrazine-2-carboxamide] | 1000 to 10000 nM | 100 to 1000 nM | 100 to 1000 nM
7 | C[C@@H]1[C@H](NC(=O)c2ccc(C3CC3)c(O)c2)CCCN1c1cnc(C(N)=O)c(Nc2cnn(C)c2)n1 [Example D-245, 5-[(2R,3R)-3-(4-cyclopropyl-3-hydroxybenzamido)-2-methylpiperidin-1-yl]-3-[(1-methyl-1H-pyrazol-4-yl)amino]pyrazine-2-carboxamide] | 1000 to 10000 nM | 100 to 1000 nM | 100 to 1000 nM
8 | Cc1cc2cc(C(=O)N[C@@H]3CCCN(c4cnc(C(N)=O)c(Nc5cnn(C)c5)n4)[C@@H]3C)ccc2o1 [Example D-246, 3-[(1-methyl-1H-pyrazol-4-yl)amino]-5-[(2R,3R)-2-methyl-3-(2-methyl-1-benzofuran-5-amido)piperidin-1-yl]pyrazine-2-carboxamide] | 1000 to 10000 nM | 100 to 1000 nM | 1000 to 10000 nM
9 | C[C@@H]1[C@H](NC(=O)c2cc(C(C)(C)C)on2)CCCN1c1cnc(C(N)=O)c(Nc2cnn(C)c2)n1 [Example D-247, 5-[(2R,3R)-3-(5-tert-butyl-1,2-oxazole-3-amido)-2-methylpiperidin-1-yl]-3-[(1-methyl-1H-pyrazol-4-yl)amino]pyrazine-2-carboxamide] | 1000 to 10000 nM | 100 to 1000 nM | 1000 to 10000 nM
10 | C[C@@H]1[C@H](NC(=O)c2ccc(C(C)(C)F)cc2)CCCN1c1cnc(C(N)=O)c(Nc2cnn(C)c2)n1 [Example D-251, 5-[(2R,3R)-3-[4-(2-fluoropropan-2-yl)benzamido]-2-methylpiperidin-1-yl]-3-[(1-methyl-1H-pyrazol-4-yl)amino]pyrazine-2-carboxamide] | 1000 to 10000 nM | 100 to 1000 nM | 1000 to 10000 nM

Results, then the compound that gave them:

Row | IC50 [1] | IC50 [2] | IC50 [3] | Structure (SMILES)
11 | 1000 to 10000 nM | 100 to 1000 nM | 1000 to 10000 nM | C[C@@H]1[C@H](NC(=O)c2ccc(C(O)C(F)(F)F)cc2)CCCN1c1cnc(C(N)=O)c(Nc2cnn(C)c2)n1 (single isomer, unassigned) [Example D-249]
12 | 100 to 1000 nM | 100 to 1000 nM | 100 to 1000 nM | C[C@@H]1[C@H](NC(=O)c2ccc(C(O)C(F)(F)F)cc2)CCCN1c1cnc(C(N)=O)c(Nc2cnn(C)c2)n1 (single isomer, unassigned) [Example D-250]
13 | 100 to 1000 nM | 100 to 1000 nM | 100 to 1000 nM | C[C@@H]1[C@H](NC(=O)c2ccc(C(C)(O)CO)cc2)CCCN1c1cnc(C(N)=O)c(Nc2cnn(C)c2)n1 (single isomer, unassigned) [Example D-256]
14 | 100 to 1000 nM | 100 to 1000 nM | 100 to 1000 nM | C[C@@H]1[C@H](NC(=O)c2ccc(C(C)(O)CO)cc2)CCCN1c1cnc(C(N)=O)c(Nc2cnn(C)c2)n1 (single isomer, unassigned) [Example D-265]
15 | 100 to 1000 nM | 100 to 1000 nM | 100 to 1000 nM | C[C@@H]1[C@H](NC(=O)c2cc3c(n2C)CC(C)(C)C3)CCCN1c1cnc(C(N)=O)c(Nc2cnn(C)c2)n1 [Example D-19, 3-[(1-methyl-1H-pyrazol-4-yl)amino]-5-[(2R,3R)-2-methyl-3-{1,5,5-trimethyl-1H,4H,5H,6H-cyclopenta[b]pyrrole-2-amido}piperidin-1-yl]pyrazine-2-carboxamide]
16 | 1000 to 10000 nM | 1000 to 10000 nM | 1000 to 10000 nM | C[C@@H]1[C@H](NC(=O)c2ccc(C3CC3)cc2Cl)CCCN1c1cnc(C(N)=O)c(Nc2cnn(C)c2)n1 [Example D-20, 5-[(2R,3R)-3-(2-chloro-4-cyclopropylbenzamido)-2-methylpiperidin-1-yl]-3-[(1-methyl-1H-pyrazol-4-yl)amino]pyrazine-2-carboxamide]
17 | 1000 to 10000 nM | 100 to 1000 nM | 1000 to 10000 nM | C[C@@H]1[C@H](NC(=O)c2ccc(C3CC3)cn2)CCCN1c1cnc(C(N)=O)c(Nc2cnn(C)c2)n1 [Example D-21, 5-[(2R,3R)-3-(5-cyclopropylpyridine-2-amido)-2-methylpiperidin-1-yl]-3-[(1-methyl-1H-pyrazol-4-yl)amino]pyrazine-2-carboxamide]
18 | 100 to 1000 nM | 100 to 1000 nM | 100 to 1000 nM | COCCN(C)c1ccc(C(=O)N[C@@H]2CCCN(c3cnc(C(N)=O)c(Nc4cnn(C)c4)n3)[C@@H]2C)cc1 [Example D-248, 5-[(2R,3R)-3-{4-[(2-methoxyethyl)(methyl)amino]benzamido}-2-methylpiperidin-1-yl]-3-[(1-methyl-1H-pyrazol-4-yl)amino]pyrazine-2-carboxamide]
19 | 100 to 1000 nM | 10 to 100 nM | 100 to 1000 nM | C[C@@H]1[C@H](NC(=O)c2cc(C3CC3)n[nH]2)CCCN1c1cnc(C(N)=O)c(Nc2cnn(C)c2)n1 [Example D-252, 5-[(2R,3R)-3-(3-cyclopropyl-1H-pyrazole-5-amido)-2-methylpiperidin-1-yl]-3-[(1-methyl-1H-pyrazol-4-yl)amino]pyrazine-2-carboxamide]
